Reference: US20230027295A1, “FXIA INHIBITORS AND PREPARATION METHOD THEREFOR AND PHARMACEUTICAL USE THEREOF” (Shenzhen Salubris Pharmaceuticals Co., Ltd., priority 2019, published 2023)
pIC50: −log10 of the molar value.

Assays:
[1] = target: Human Factor XIa (Homo sapiens, UniProt P03951); assay: Inhibition of human coagulation factor XIa by absorptiometry (substrate S-2366); assay type: biochemical; details: 37° C., 20 min incubation, absorbance 405 nm; read-out: hFXIa IC50
Method: Example 50: Detection of the Biological Activity of the Compounds of the Present Invention on the Inhibition of Human Coagulation Factor XIa by Absorptiometry
Buffer: 145 mM NaCl, 5 mM KCl, 1 mg/mL PEG 8000, 30 mM HEPES, pH 7.4
10 mM test compound dissolved in 100% DMSO was diluted with 100% DMSO to […]; 98 μL of FXIa enzyme solution (77.7 ng/mL) was added to each well of a 96-well plate, and 98 μL of buffer was added to the blank wells. 2 μL of compounds of different concentrations were added, and the blank and control wells were added with DMSO instead. They were mixed with a shaker, and incubated at 37° C. for 20 minutes.
Finally, 100 μL of 800 μM substrate was added to each well, and its absorbance was measured at 405 nm.

[2] = tested on: human plasma; assay: Anticoagulant effect on human plasma in vitro (APTT determination); assay type: biochemical; details: for aPTT EC1.5×: concentration giving APTT of 1.5× blank control; for aPTT EC2×: concentration giving APTT of 2× blank control
Method: Example 51: Determination of the Anticoagulant Effect of the Compounds of the Present Invention on Human Plasma In Vitro
Plasma: Human blood was collected in a vacuum blood collection tube containing 3.2% sodium citrate (volume ratio 1:9), centrifuged at 3000 rpm for 10 min at room temperature, and the plasma was collected, divided into EP tubes, and stored at −80° C.
Reagents: APTT assay kit (Activated partial thromboplastin time assay kit, mindray), calcium chloride solution.
Instrument: coagulation meter (mindray, C2000-A)
The frozen human plasma in aliquots was thawed at room temperature and mixed well. 10 mM test compound dissolved in 100% DMSO was diluted with 100% DMSO to 1500, 750, 375, 187.5, 93.75, 46.88, 23.44, 11.72 μM. 98 μL of human plasma was added to a 1.5 mL EP tube, then 2 μL of compounds of different concentrations were added, and 2 μL of 100% DMSO was added for the blank group. They were incubated under a water bath at 37° C. for 10 min, and the samples were placed in the corresponding position of the coagulation analyzer to conduct APTT determination of the compounds.
Curve fitting was performed with GraphPad Prism software, and EC1.5× and EC2× values were calculated respectively, i.e., the concentrations of the compounds corresponding to the APTT of 1.5× and 2× blank control group.

[3] = Rat pharmacokinetics; assay type: in vivo, SD rats; parameters: AUC: concentration or dose not given beside the values; details: for AUC / Cmax / Tmax / clearance / half-life / Vd: male, SD, plasma; for Vd: read-out: Vss
Source text: (§1) Example 53: Investigation of the Pharmacokinetic Characteristics of the Compounds of the Present Invention
(§2) SD rats: male, 180-250 g, purchased from Guangdong Medical Laboratory Animal Center. Cynomolgus monkey: male, 4-6 kg, purchased from Guangzhou Chunsheng Biological Research Institute Co., Ltd. Beagle dog: male, 8-12 kg, developed in Kanglong Chemical (Ningbo) New Drug Technology Co., Ltd.
(§3) Reagents: DMSO (dimethyl sulfoxide), PEG-400 (polyethylene glycol 400), normal brine, heparin, acetonitrile, formic acid, and propranolol (internal standard) are commercially available.
(§4) Instrumentation: Thermo Fisher Scientific LC-MS (U300 UPLC, TSQ […] ULTRA triple quadrupole mass spectrometer).
(§5) The compound was weighed and dissolved in DMSO-PEG-400-physiological brine (5:60:35, v/v/v) system. After the rats/monkeys were administered intravenously or by gavage, 200 μL of venous blood was collected at 5 min (not collected when administered by gavage), 15 min, 30 min, 1 h, 2 h, 4 h, 6 h, 8 h, and 24 h in heparinized EP tubes, centrifuged at 12000 rpm for 2 min, and the plasma was frozen at −80° C. for testing. A certain amount of the test substance was precisely weighed and dissolved in DMSO to 1 mg/mL, which was used as a stock solution. An appropriate amount of compound stock solution was accurately pipetted and diluted with acetonitrile to prepare a standard series of solutions. 20 μL of each of the above standard series solutions were accurately pipetted, added with 180 μL of blank plasma, vortexed and mixed to prepare plasma samples equivalent to plasma concentrations of 1, 3, 10, 30, 100, 300, 1000, 3000 and 5000 ng/mL. Two-sample analysis was performed for each concentration to establish a standard curve. 20 μL of plasma was taken out, added with 200 μL of internal standard propranolol (5 ng/mL) in acetonitrile, vortexed and mixed. It was centrifuged at 4000 rpm for 5 min, and the supernatant was collected for LC-MS analysis. LC-MS detection conditions were as follows:
(§6) Chromatographic column: Thermo Scientific […] GOLD C-18 UPLC column, 100*2.1 mm, 1.9 μm.
(§7) Mobile phase: water (0.1% formic acid)-acetonitrile for gradient elution according to the table below.
(§8) After blood drug concentrations being detected by LC-MS, WinNonlin 6.1 software was used to calculate pharmacokinetic parameters by non-compartmental model method.

[4] = Cynomolgus monkey pharmacokinetics; assay type: in vivo; parameters: AUC: concentration or dose not given beside the values
Source text: as §1, §2, §3, §4, §5, §6, §7, §8

Sequence of Human Factor XIa (P03951 388-625 limits assumed): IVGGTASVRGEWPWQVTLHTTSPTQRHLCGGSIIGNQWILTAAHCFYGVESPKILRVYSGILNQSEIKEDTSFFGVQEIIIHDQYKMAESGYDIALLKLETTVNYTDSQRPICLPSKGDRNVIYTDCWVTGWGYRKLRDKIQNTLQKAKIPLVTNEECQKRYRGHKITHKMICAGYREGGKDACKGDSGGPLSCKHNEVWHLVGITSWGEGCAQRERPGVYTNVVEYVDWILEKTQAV
Sequence of Human Factor XIa (P03951 19-387 partner limits assumed): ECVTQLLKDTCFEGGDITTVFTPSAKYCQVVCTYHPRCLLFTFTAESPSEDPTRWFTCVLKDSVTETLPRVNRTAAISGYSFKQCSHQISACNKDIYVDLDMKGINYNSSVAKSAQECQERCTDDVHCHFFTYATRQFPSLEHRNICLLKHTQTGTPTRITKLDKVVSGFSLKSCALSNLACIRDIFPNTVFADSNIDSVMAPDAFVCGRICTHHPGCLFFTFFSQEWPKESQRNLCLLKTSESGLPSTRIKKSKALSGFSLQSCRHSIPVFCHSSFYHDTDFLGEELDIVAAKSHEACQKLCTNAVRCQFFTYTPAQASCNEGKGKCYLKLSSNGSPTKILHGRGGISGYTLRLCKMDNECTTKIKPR

Structure (SMILES): CC(=O)c1ccc(Cl)cc1-c1cc(=O)n([C@@H](Cc2ccccc2)C(=O)Nc2ccc(C(=O)O)cc2)nc1OC1COC1 [Example 24, (S)-4-(2-(4-(2-acetyl-5-chlorophenyl)-6-oxo-3-(oxetan-3-yloxy)-pyridazine-1(6H)-yl)-3-phenylpropanamido)benzoic acid]
- pIC50 [1]: 7.64
- aPTT EC1.5× [2]: 0.769 µM
- aPTT EC2× [2]: 2.785 µM
- F ([3]; ig): 3.9%
- AUC ([3]; iv): 457 ng·h/mL
- Cmax ([3]; iv): 1270 ng/mL
- Tmax ([3]; iv): 4.98 min
- clearance ([3]; iv): 36.5 mL/min/kg
- half-life ([3]; iv): 168 min
- Vd ([3]; iv): 1.14 L/kg
- AUC ([3]; po, ig): 93.5 ng·h/mL
- Cmax ([3]; po, ig): 43.7 ng/mL
- Tmax ([3]; po, ig): 30 min
- half-life ([3]; po, ig): 104 min

Structure (SMILES): COc1nn(C(Cc2ccc(N3CCN(C(C)C)CC3=O)cc2)C(=O)Nc2ccc(C(=O)O)cc2)c(=O)cc1-c1cc(Cl)ccc1C(C)=O (stereo not shown) [Example 4, 4-(2-(4-(2-acetyl-5-chlorophenyl)-3-methoxy-6-oxopyridazin-1(6H)-yl)-3-(4-(4-isopropyl-2-oxopiperazin-1-yl)phenyl)propanamido)benzoic acid]
- pIC50 [1]: 7.49
- aPTT EC1.5× [2]: 2.171 µM
- aPTT EC2× [2]: 11.938 µM

Structure (SMILES): COc1nn(C(Cc2ccc(F)cc2)C(=O)Nc2ccc(C(=O)O)cc2)c(=O)cc1-c1cc(Cl)ccc1C(C)=O (stereo not shown) [Example 2]
- pIC50 [1]: 7.34
- aPTT EC1.5× [2]: 3.455 µM
- aPTT EC2× [2]: >15 µM

Structure (SMILES): COCCOc1nn([C@@H](Cc2ccccc2)C(=O)Nc2ccc(C(=O)O)cc2)c(=O)cc1-c1cc(Cl)ccc1C(C)=O [Example 21, (S)-4-(2-(4-(2-acetyl-5-chlorophenyl)-3-(2-methoxyethoxy)-6-oxopyridazin-1(6H)-yl)-3-phenylpropanamido)benzoic acid]
- pIC50 [1]: 7.66
- aPTT EC1.5× [2]: 0.777 µM
- aPTT EC2× [2]: 3.848 µM
- F ([3]; ig): 14.9%
- AUC ([3]; iv): 743 ng·h/mL
- Cmax ([3]; iv): 1600 ng/mL
- Tmax ([3]; iv): 5.99 min
- clearance ([3]; iv): 25.3 mL/min/kg
- half-life ([3]; iv): 29.5 min
- Vd ([3]; iv): 0.277 L/kg
- AUC ([3]; po, ig): 608 ng·h/mL
- Cmax ([3]; po, ig): 166 ng/mL
- Tmax ([3]; po, ig): 90 min
- half-life ([3]; po, ig): 139 min
- F ([4]; ig): 6.3%
- AUC ([4]; male, plasma, iv): 455 ng·h/mL
- Cmax ([4]; male, plasma, iv): 1010 ng/mL
- Tmax ([4]; male, plasma, iv): 4.98 min
- clearance ([4]; male, plasma, iv): 18.3 mL/min/kg
- half-life ([4]; male, plasma, iv): 76.2 min
- Vd ([4]; male, plasma, iv, read-out: Vss): 0.699 L/kg
- AUC ([4]; male, plasma, po, ig): 357 ng·h/mL
- Cmax ([4]; male, plasma, po, ig): 27.2 ng/mL
- Tmax ([4]; male, plasma, po, ig): 90 min
- half-life ([4]; male, plasma, po, ig): 684 min

Structure (SMILES): CC(=O)c1ccc(Cl)cc1-c1cc(=O)n([C@@H](Cc2ccccc2)C(=O)Nc2ccc(C(=O)O)cc2)nc1OC(C)C [Example 22, (S)-4-(2-(4-(2-acetyl-5-chlorophenyl)-3-isopropoxy-6-oxopyridazin-1(6H)-yl)-3-phenylpropanamido)benzoic acid]
- pIC50 [1]: 7.79
- aPTT EC1.5× [2]: 1.346 µM
- aPTT EC2× [2]: 9.382 µM

Structure (SMILES): COc1nn([C@@H](Cc2ccccc2)C(=O)Nc2ccc(C(=O)O)cc2)c(=O)cc1-c1cc(Cl)ccc1C(=O)C(F)F [Example 36, (S)-4-(2-(4-(5-chloro-2-(2,2-difluoroacetyl)phenyl)-3-methoxy-6-oxopyridazine-1(6H)-yl)-3-phenylpropanamido)benzoic acid]
- pIC50 [1]: 7.94
- aPTT EC1.5× [2]: 1.348 µM
- aPTT EC2× [2]: 6.562 µM

Structure (SMILES): COc1nn([C@@H](Cc2ccccc2)C(=O)Nc2ccc3[nH]c(C(=O)O)cc3c2)c(=O)cc1-c1cc(Cl)ccc1C(C)=O [Example 15, (S)-5-(2-(4-(2-acetyl-5-chlorophenyl)-3-methoxy-6-oxopyridazin-1(6H)-yl)-3-phenylpropanamido)-1H-indol-2-formic acid]
- pIC50 [1]: 8.82
- aPTT EC1.5× [2]: 0.531 µM
- aPTT EC2× [2]: 1.749 µM
- F ([3]; ig): 0.1%
- AUC ([3]; iv): 599 ng·h/mL
- Cmax ([3]; iv): 1840 ng/mL
- Tmax ([3]; iv): 4.98 min
- clearance ([3]; iv): 29.1 mL/min/kg
- half-life ([3]; iv): 28 min
- Vd ([3]; iv): 0.471 L/kg
- Cmax ([3]; po, ig): 3 ng/mL
- Tmax ([3]; po, ig): 30 min

Structure (SMILES): CCOc1nn([C@@H](Cc2ccccc2)C(=O)Nc2ccc(C(=O)O)cc2)c(=O)cc1-c1cc(Cl)ccc1C(C)=O [Example 16, (S)-4-(2-(4-(2-acetyl-5-chlorophenyl)-3-ethoxy-6-oxopyridazin-1(6H)-yl)-3-phenylpropanamido)benzoic acid]
- pIC50 [1]: 7.88
- aPTT EC1.5× [2]: 1.005 µM
- aPTT EC2× [2]: 4.768 µM
- F ([3]; ig): 8.1%
- AUC ([3]; iv): 1090 ng·h/mL
- Cmax ([3]; iv): 2530 ng/mL
- Tmax ([3]; iv): 4.98 min
- clearance ([3]; iv): 16.6 mL/min/kg
- half-life ([3]; iv): 40.6 min
- Vd ([3]; iv): 0.444 L/kg
- AUC ([3]; po, ig): 481 ng·h/mL
- Cmax ([3]; po, ig): 160 ng/mL
- Tmax ([3]; po, ig): 22.5 min
- half-life ([3]; po, ig): 81 min

Structure (SMILES): CC(=O)c1ccc(Cl)cc1-c1cc(=O)n([C@@H](Cc2ccccc2)C(=O)Nc2ccc(C(=O)O)cc2)nc1OC(F)F [Example 25, (S)-4-(2-(4-(2-acetyl-5-chlorophenyl)-3-(difluoromethoxy)-6-oxopyridazin-1(6H)-yl)-3-phenylpropanamido)benzoic acid]
- pIC50 [1]: 7.73
- aPTT EC1.5× [2]: 1.782 µM
- aPTT EC2× [2]: 9.452 µM
- F ([3]; ig): 8.6%
- AUC ([3]; iv): 889 ng·h/mL
- Cmax ([3]; iv): 1780 ng/mL
- Tmax ([3]; iv): 4.98 min
- clearance ([3]; iv): 22.6 mL/min/kg
- half-life ([3]; iv): 48 min
- Vd ([3]; iv): 0.915 L/kg
- AUC ([3]; po, ig): 461 ng·h/mL
- Cmax ([3]; po, ig): 125 ng/mL
- Tmax ([3]; po, ig): 37.5 min
- half-life ([3]; po, ig): 158 min

Structure (SMILES): CC(=O)c1ccc(Cl)cc1-c1cc(=O)n([C@@H](Cc2ccccc2)C(=O)Nc2ccc(C(=O)O)cc2)nc1OCC(F)(F)F [Example 23, (S)-4-(2-(4-(2-acetyl-5-chlorophenyl)-6-oxo-3-(2,2,2-trifluoroethoxy)pyridazine-1(6H)-yl)-3-phenylpropanamido)benzoic acid]
- pIC50 [1]: 7.65
- aPTT EC1.5× [2]: 4.236 µM
- aPTT EC2× [2]: >15 µM

Structure (SMILES): COc1nn([C@@H](Cc2ccccc2)C(=O)Nc2ccc(C(=O)O)cc2)c(=O)cc1-c1cc(Cl)ccc1C(=O)CO [Example 35, (S)-4-(2-(4-(5-chloro-2-(2-hydroxyacetyl)phenyl)-3-methoxy-6-oxopyridazin-1(6H)-yl)-3-phenylpropanamido)benzoic acid]
- pIC50 [1]: 7.78
- aPTT EC1.5× [2]: 1.271 µM
- aPTT EC2× [2]: 5.987 µM
